Results published in article PMC10988555, “Exploiting Co(III)-Cyclopentadienyl Complexes To Develop Anticancer Agents” (Inorganic Chemistry, 2024).

Experiments:
Calf Thymus DNA (CT-DNA) = assay: Calf thymus DNA binding assays (UV-vis, melting profile); settings: UV spectroscopy, 25 μM complex
Method: Calf Thymus DNA (CT-DNA) binding assay was performed through the UV–vis spectra from 230 to 700 nm on the spectrophotometer Evolution 300 UV–vis (Thermo Fischer Scientific, Waltham, MA, USA). It was used a filtered buffer (5 mM Tris–HCl, 50 mM NaCl, pH 7.02) for the dilution of 0–50 μM of CT-DNA and 25 μM of the complexes 2–4. Control solutions of CT-DNA, CT-DNA + DMSO, and DMSO were also prepared. All solutions were incubated for 24 h at 37 °C and then analyzed. CT-DNA concentration in […] had been determined at 260 nm in a NanoDrop2000 spectrophotometer (Thermo Scientific), using an extinction coefficient of 6600 M^–1 cm^–1. The dilution effect because of the addition of the DNA solution was corrected and the affinity constants were calculated according to eq 2: [drawing 2] 2 where [DNA] is the concentration of CT-DNA (per nucleotide phosphate), εa = Abs/[complex], εf is the extinction coefficient for the free complex, and εb is the extinction coefficient for [Co(η^5-C5H5)(PPh3)(NN)][(CF3SO3)2] when fully bound to DNA. DNA concentration (expressed as the molarity of phosphate groups) was determined with a NanoDrop 2000 spectrophotometer assuming ε260 = 6600 M^–1 cm^–1. A melting profile of 10 μM CT-DNA and 10 μM CT-DNA with 10 μM of the complexes 2–4, was also performed. Evagreen dye was added to all samples after a 1h 30 min incubation of CT-DNA with the complexes at 37 °C. Melting curves were analyzed in a Corbet RotorGene 6000 (Biorad, Spain) by a first incubation step at 37 °C for 5 min followed by a ramp from 37 to 95 °C with 90 s hold in the first step and 5 s hold in the next steps with green acquisition.

A2780 cells = assay: Cell cycle progression (PI flow cytometry, double thymidine block); assay type: cell-based, human; settings: A2780, 24 h; complexes at IC50, DOX 0.4 μM, cisplatin 5 μM
Method: The interference of the copper complexes 2–4 in the cell cycle progression was evaluated in A2780 cells, seeded in 6-weel plates, with a density of 2 × 10^5 cells/well, and incubated for 8 h at the same conditions as described above. After that incubation time, the cells were synchronized in early S-phase with a 2 mM thymidine solution (Sigma, St. Louis, USA) for a 16 h period. Media with thymidine was replaced by fresh media and, after 8 h, another 2 mM thymidine solution was added to the wells (double thymidine block) and incubated for 16 h. […] Cells were incubated for 9, 18, or 24 h, and, at each hour, the cells were treated with TE and centrifuges at 650 × g for 5 min at 4 °C. The pellet was resuspended in PBS 1× and centrifuged at 3000 × g for 5 min at 4 °C. Later, the pellet was resuspended in 100 μL of PBS 1×, and 1 mL of a solution of 80% (v/v) ethanol was gently added to the cells. Cells were stored at 4 °C for at least 12 h and then centrifuged for 10 min at 7500 × g at 4 °C, treated with 250 μL of 50 μg/mL RNase A, and incubated for 30 min at 37 °C. After incubation, 100 μL of PI (25 μg/mL) was added to the cells as well as 650 μL of PBS 1×. The DNA content was evaluated on an Attune Acoustic Focusing Flow Cytometer (ThermoFisher Scientific) and results were analyzed by the respective software.

[1] = Octanol-water partition coefficient, shake-flask method; assay type: physicochemical; settings: room temperature
Method: The lipophilicity of the CoCp complexes was estimated by the shake-flask method.[54] Before the assays, n-octanol was vigorously mixed with distilled water for 24 h at room temperature to promote solvent saturation of both phases. After separating the phases, the complexes were dissolved in the n-octanol phase to obtain solutions 1.0 × 10^–5 to 2.5 × 10^–4 M. Then, each solution was equilibrated with water for 4 h in a mechanical shaker, at a phase ratio of 2 mL n-octanol:2 mL water. Afterward, the aqueous and octanol layers were carefully separated by centrifugation (5000 rpm, 10 min), and the UV–vis absorption spectra of the complexes were recorded in the n-octanol phase. For each sample, the concentration was determined by using a calibration curve in n-octanol. All experiments were performed in triplicate for each complex, being the averages used for calculation purposes. Finally, the values of the partition coefficients were calculated by resorting to the following eq (eq 1): [drawing 1] 1 where logPoct/water represents the octanol–water partition coefficient, [complex]oct represents the concentration of the complex in the n-octanol phase, and [complex]water represents the concentration of the complex in the water phase.

## Nc1cc2cccnc2c2ncccc12.O=S(=O)([O-])C(F)(F)F.O=S(=O)([O-])C(F)(F)F.[Co+3].c1cc[cH-]c1.c1ccc(P(c2ccccc2)c2ccccc2)cc1 [Complex 4, [CoCp(PPh3)(NH2phen)][(CF3SO3)2]]
Calf Thymus DNA (CT-DNA)
  effect on lowest-energy absorption band with increasing CT-DNA: a hypochromic effect
A2780 cells
  % of cells in the G2/M phase: 28%
[1]
  logP (n-octanol/water partition coefficient): −0.22 ± 0.03

## O=S(=O)([O-])C(F)(F)F.O=S(=O)([O-])C(F)(F)F.[Co+3].c1cc[cH-]c1.c1ccc(P(c2ccccc2)c2ccccc2)cc1.c1cnc2c(c1)ccc1cccnc12 [Complex 3, [Co(η^5-C5H5)(PPh3)(phen)][(CF3SO3)2]]
Calf Thymus DNA (CT-DNA)
  effect on lowest-energy absorption band with increasing CT-DNA: a hypochromic effect
A2780 cells
  % of cells in the G2/M phase: 20.7%
[1]
  logP (n-octanol/water partition coefficient): −0.28 ± 0.05

## Cc1ccnc(-c2cc(C)ccn2)c1.O=S(=O)([O-])C(F)(F)F.O=S(=O)([O-])C(F)(F)F.[Co+3].c1cc[cH-]c1.c1ccc(P(c2ccccc2)c2ccccc2)cc1 [Complex 2, [Co(η^5-C5H5)(PPh3)(Me2bipy)][(CF3SO3)2]]
Calf Thymus DNA (CT-DNA)
  effect on lowest-energy absorption band with increasing CT-DNA: a small hyperchromic effect
A2780 cells
  % of cells in the G2/M phase: 34.1%
[1]
  logP (n-octanol/water partition coefficient): −0.56 ± 0.02
